Assay results taken from patent US8772480B2, “Inhibitors of PI3 kinase and/or mTOR” (priority 2009, dated 2014).
Like-named read-outs stand apart in the source and are kept apart here.

Legend:
[1] = biological target: PI3Kα (Homo sapiens (Human), UniProt P42336); details: read-out: PI3Kα AlphaScreen ® Ki
[2] = system: phosphorylation of Akt at Serine 473 in U87 MG cells; assay: cells; details: Homo sapiens, U-87 MG, 2 h
[3] = read-out: U87Cell IC50, pAkt (Ser 473), U87 MG cells, two hours with compound

Chain of PI3Kα (P42336 whole entry): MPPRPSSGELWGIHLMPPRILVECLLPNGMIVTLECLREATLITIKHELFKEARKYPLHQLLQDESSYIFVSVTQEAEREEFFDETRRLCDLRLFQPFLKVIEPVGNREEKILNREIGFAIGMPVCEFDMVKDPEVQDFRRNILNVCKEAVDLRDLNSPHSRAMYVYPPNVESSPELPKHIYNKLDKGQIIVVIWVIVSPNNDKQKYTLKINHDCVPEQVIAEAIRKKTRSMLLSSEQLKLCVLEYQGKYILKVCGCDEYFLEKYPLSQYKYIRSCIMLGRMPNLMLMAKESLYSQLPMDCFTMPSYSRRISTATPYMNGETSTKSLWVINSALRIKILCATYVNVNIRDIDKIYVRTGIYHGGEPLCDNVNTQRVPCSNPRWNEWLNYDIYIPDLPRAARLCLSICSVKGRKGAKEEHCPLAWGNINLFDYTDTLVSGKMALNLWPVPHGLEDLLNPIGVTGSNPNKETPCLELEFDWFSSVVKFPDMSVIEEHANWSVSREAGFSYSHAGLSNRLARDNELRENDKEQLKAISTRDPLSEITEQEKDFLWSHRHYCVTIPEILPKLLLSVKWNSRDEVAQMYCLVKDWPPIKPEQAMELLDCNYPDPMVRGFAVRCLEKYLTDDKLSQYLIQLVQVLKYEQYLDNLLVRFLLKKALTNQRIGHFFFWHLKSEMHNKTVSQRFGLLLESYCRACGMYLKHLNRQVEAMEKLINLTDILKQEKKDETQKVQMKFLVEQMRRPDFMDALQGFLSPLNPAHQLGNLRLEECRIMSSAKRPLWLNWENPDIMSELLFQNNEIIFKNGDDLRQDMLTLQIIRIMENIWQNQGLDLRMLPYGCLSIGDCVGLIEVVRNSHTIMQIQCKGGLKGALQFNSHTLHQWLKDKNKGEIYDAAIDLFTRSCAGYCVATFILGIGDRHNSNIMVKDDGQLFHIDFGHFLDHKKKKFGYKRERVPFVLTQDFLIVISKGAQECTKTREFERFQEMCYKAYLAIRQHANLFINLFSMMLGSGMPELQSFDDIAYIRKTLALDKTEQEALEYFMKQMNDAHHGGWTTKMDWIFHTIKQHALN
Chain of PI3Kα (P27986 whole entry partner): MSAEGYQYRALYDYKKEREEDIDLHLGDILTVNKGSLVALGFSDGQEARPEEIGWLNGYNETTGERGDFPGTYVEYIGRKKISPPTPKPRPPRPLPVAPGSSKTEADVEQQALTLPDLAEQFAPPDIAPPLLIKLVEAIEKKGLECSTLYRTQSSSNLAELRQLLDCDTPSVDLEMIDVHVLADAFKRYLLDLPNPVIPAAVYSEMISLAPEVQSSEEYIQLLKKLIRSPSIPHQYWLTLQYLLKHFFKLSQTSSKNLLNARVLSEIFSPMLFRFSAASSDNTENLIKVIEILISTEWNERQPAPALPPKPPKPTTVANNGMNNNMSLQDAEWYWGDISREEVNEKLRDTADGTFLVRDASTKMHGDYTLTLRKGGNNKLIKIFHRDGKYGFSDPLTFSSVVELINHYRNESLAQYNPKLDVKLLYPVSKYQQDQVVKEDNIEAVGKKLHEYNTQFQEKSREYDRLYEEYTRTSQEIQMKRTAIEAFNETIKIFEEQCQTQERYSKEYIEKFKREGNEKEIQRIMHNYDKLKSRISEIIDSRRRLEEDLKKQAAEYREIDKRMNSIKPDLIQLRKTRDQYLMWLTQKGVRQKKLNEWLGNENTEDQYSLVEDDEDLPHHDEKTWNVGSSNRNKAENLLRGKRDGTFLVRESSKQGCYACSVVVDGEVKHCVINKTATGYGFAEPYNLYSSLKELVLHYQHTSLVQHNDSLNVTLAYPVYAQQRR

Row | SMILES | Ki [1] [nM] | IC50 [2, 3] [nM] | IC50 ([2]; read-out: U87Cell IC50) [nM]
1 | CCNc1cnc(Nc2ccc(OC)nc2)c(-c2nc(C)nc3[nH]cnc23)c1 [Example 94, N5-ethyl-N2-(6-methoxypyridin-3-yl)-3-(2-methyl-9H-purin-6-yl)pyridine-2,5-diamine] | 181 | 1230 | –
2 | COc1ncc(Nc2ncc(C(C)N)cc2-c2nc(C)nc(N)n2)cc1F (stereo not drawn) [Example 327, 4-(5-(1-Aminoethyl)-2-(5-Fluoro-6-Methoxypyridin-3-Ylamino)Pyridin-3-yl)-6-Methyl-1,3,5-Triazin-2-Amine] | 69 | 146 | –
3 | COc1ccc(Nc2ncc(CN3CC(O)C3)cc2-c2nc(C)nc(N)n2)cn1 [Example 229, 1-((5-(4-Amino-6-Methyl-1,3,5-Triazin-2-yl)-6-(6-Methoxypyridin-3-Ylamino)Pyridin-3-yl)Methyl)Azetidin-3-ol] | 59 | 276 | –
4 | Cc1nc(N)nc(-c2cc(F)cnc2Nc2cncc(F)c2)n1 [Example 186, 4-(5-Fluoro-2-(5-Fluoropyridin-3-Ylamino)Pyridin-3-yl)-6-Methyl-1,3,5-Triazin-2-Amine] | 851 | > 10000 | –
5 | COc1ncc(Nc2ncc([C@H](C)N3CCOCC3)cc2-c2nc(C)nc(N)n2)cc1F (single isomer, unassigned) [Example 292] | 44 | 20 | –
6 | COc1ccc(Nc2nc(N)ncc2-c2nc(C)nc(N)n2)cn1 [Example 118, 5-(4-amino-6-methyl-1,3,5-triazin-2-yl)-N4-(6-methoxypyridin-3-yl)pyrimidine-2,4-diamine] | 113 | 172 | –
7 | Cc1ccc2cc(Nc3ncccc3-c3nc(C)nc(N)n3)ccc2n1 [Example 171, N-(3-(4-Amino-6-Methyl-1,3,5-Triazin-2-yl)Pyridin-2-yl)-2-Methylquinolin-6-Amine] | 611 | > 10000 | –
8 | Cc1nc(N)nc(-c2cc([C@@H](C)N3CCN(S(C)(=O)=O)CC3)cnc2Nc2ccc3cccnc3c2)n1 [Example 310, (R)—N-(3-(4-amino-6-methyl-1,3,5-triazin-2-yl)-5-(1-(4-(methylsulfonyl)piperazin-1-yl)ethyl)pyridin-2-yl)quinolin-7-amine 2,2,2-trifluoroacetate] | 36 | – | 65
9 | COCCOc1cnc(Nc2cnc(OC)c(NS(C)(=O)=O)c2)c(-c2nc(C)nc(N)n2)c1 [Example 336, N-(5-(3-(4-Amino-6-Methyl-1,3,5-Triazin-2-yl)-5-(2-Methoxyethoxy)Pyridin-2-Ylamino)-2-Methoxypyridin-3-yl)Methanesulfonamide] | 55 | 36 | –
10 | COc1ccc(Nc2ncccc2-c2nc(C)nc(N)n2)cc1F [Example 166, 4-(2-(3-Fluoro-4-Methoxyphenylamino)Pyridin-3-yl)-6-Methyl-1,3,5-Triazin-2-Amine] | 177 | 902 | –
11 | CC(=O)Nc1ccc(Nc2ncc(CN3CCN(S(C)(=O)=O)CC3)cc2-c2nc(C)nc(N)n2)cn1 [Example 196, N-(5-(3-(4-Amino-6-Methyl-1,3,5-Triazin-2-yl)-5-((4-(Methylsulfonyl)Piperazin-1-yl)Methyl)Pyridin-2-Ylamino)Pyridin-2-yl)Acetamide] | 52 | 322 | –
12 | COc1ccc(Nc2ncc(N3CC[C@H](CO)C3)cc2-c2nc(C)nc3[nH]cnc23)cn1 [Example 204, ((3S)-1-(6-((6-Methoxy-3-Pyridinyl)Amino)-5-(2-Methyl-9H-Purin-6-yl)-3-Pyridinyl)-3-Pyrrolidinyl)Methanol] | 40 | 434 | –
13 | Cc1nc(N)nc(-c2cc(CN3CCN(S(C)(=O)=O)CC3)cnc2Nc2ccc3ncsc3c2)n1 [Example 241, N-(3-(4-Amino-6-Methyl-1,3,5-Triazin-2-yl)-5-((4-(Methylsulfonyl)Piperazin-1-yl)Methyl)Pyridin-2-yl)Benzo[D]Thiazol-6-Amine] | 43 | 87 | –
14 | COc1ccc(Nc2ncc(C(N3CCN(S(C)(=O)=O)CC3)C(F)(F)F)cc2-c2nc(C)nc(N)n2)cn1 (stereo not drawn) [Example 321, 4-(2-(6-Methoxypyridin-3-Ylamino)-5-(2,2,2-Trifluoro-1-(4-(Methylsulfonyl)Piperazin-1-yl)Ethyl)Pyridin-3-yl)-6-Methyl-1,3,5-Triazin-2-Amine] | 34 | 80 | –
15 | Cc1nc(N)cc(-c2cccnc2Nc2cnc(Cl)c(NS(=O)(=O)N(C)C)c2)n1 [Example 375, N-(5-(3-(6-Amino-2-Methylpyrimidin-4-yl)Pyridin-2-Ylamino)-2-Chloropyridin-3-yl)-N,N-Dimethylaminosulfamide] | 152 | 175 | –
16 | COc1ccc(Nc2ncc(N3CCC(O)C3)cc2-c2nc(C)nc3[nH]cnc23)cn1 (stereo not drawn) [Example 98, 1-(6-(6-Methoxypyridin-3-Ylamino)-5-(2-Methyl-9H-Purin-6-yl)Pyridin-3-yl)Pyrrolidin-3-ol] | 79 | 297 | –
17 | Cc1nc(N)nc(-c2cc(CN3CCN(S(C)(=O)=O)C[C@@H]3C)cnc2Nc2ccc(Cl)nc2)n1 [Example 318, (S)-4-(2-(6-Chloropyridin-3-Ylamino)-5-((2-Methyl-4-(Methylsulfonyl)Piperazin-1-yl)Methyl)Pyridin-3-yl)-6-Methyl-1,3,5-Triazin-2-Amine] | 32 | 44 | –
18 | COc1ccc(Nc2ccccc2-c2nc(C)nc(N)n2)cn1 [Example 239, 4-(2-(6-Methoxypyridin-3-Ylamino)Phenyl)-6-Methyl-1,3,5-Triazin-2-Amine] | 396 | – | –
19 | COc1ccc(Nc2nccnc2-c2cc(N)nc(C)n2)cn1 [Example 116, 6-(3-(6-methoxypyridin-3-ylamino)pyrazin-2-yl)-2-methylpyrimidin-4-amine] | 59 | – | –

The next molecules have a lower Ki [1] than those just listed; values first:

Row | Ki [1] [nM] | IC50 [2, 3] [nM] | SMILES | IC50 ([2]; read-out: U87Cell IC50) [nM]
20 | 3 | 4 | COc1ncc(Nc2ncc(C(C)N3CCN(S(C)(=O)=O)CC3)nc2-c2cc(N)nc(C)n2)cc1F (stereo not drawn) [Example 283, 6-(3-(5-Fluoro-6-Methoxypyridin-3-Ylamino)-6-(1-(4-(Methylsulfonyl)Piperazin-1-yl)Ethyl)Pyrazin-2-yl)-2-Methylpyrimidin-4-Amine] | –
21 | 17 | 91 | COc1ncc(Nc2ncc([C@@H](C)N3CCOCC3)cc2-c2cc(N)nc(C)n2)cc1F [Example 276, 6-(2-((5-Fluoro-6-Methoxy-3-Pyridinyl)Amino)-5-((1R)-1-(4-Morpholinyl)Ethyl)-3-Pyridinyl)-2-Methyl-4-Pyrimidinamine] | –
22 | 13 | 35 | COc1ncc(Nc2ncc(C(C)(C)O)cc2-c2cc(N)nc(C)n2)cc1F [Example 345, 2-(5-(6-Amino-2-Methylpyrimidin-4-yl)-6-(5-Fluoro-6-Methoxypyridin-3-Ylamino)Pyridin-3-yl)Propan-2-ol] | –
23 | 7 | 21 | Cc1nc(N)nc(-c2cc(CN3CCN(S(C)(=O)=O)CC3)cnc2Nc2ccc3ocnc3c2)n1 [Example 128, N-(3-(4-amino-6-methyl-1,3,5-triazin-2-yl)-5-((4-(methylsulfonyl)piperazin-1-yl)methyl)pyridin-2-yl)benzo[d]oxazol-5-amine] | –
24 | 29 | 192 | COc1ccc(Nc2ncc(N3CCC[C@H]3CO)cc2-c2nc(C)nc3[nH]cnc23)cn1 [Example 100, ((2S)-1-(6-(6-Methoxypyridin-3-Ylamino)-5-(2-Methyl-9H-Purin-6-yl)Pyridin-3-yl)Pyrrolidin-2-yl)Methanol] | –
25 | 2 | 10 | COc1ncc(Nc2ncc([C@@H](C)N3CCN(S(C)(=O)=O)C[C@@H]3C)cc2-c2nc(C)nc(N)n2)cn1 [Example 362, 4-(2-(2-Methoxypyrimidin-5-Ylamino)-5-((R)-1-((S)-2-Methyl-4-(Methylsulfonyl)Piperazin-1-yl)Ethyl)Pyridin-3-yl)-6-Methyl-1,3,5-Triazin-2-Amine] | –
26 | 6 | 28 | COc1ccc(Nc2ncc(CN3CC(S(C)(=O)=O)C3)cc2-c2nc(C)nc(N)n2)cn1 [Example 223, 4-(2-(6-Methoxypyridin-3-Ylamino)-5-((3-(Methylsulfonyl)Azetidin-1-yl)Methyl)Pyridin-3-yl)-6-Methyl-1,3,5-Triazin-2-Amine] | –
27 | 2 | 6 | COc1ncc(Nc2ncc(Cc3ccc(S(C)(=O)=O)cc3)cc2-c2nc(C)nc(N)n2)cc1F [Example 142, 4-(2-(5-fluoro-6-methoxypyridin-3-ylamino)-5-(4-(methylsulfonyl)benzyl)pyridin-3-yl)-6-methyl-1,3,5-triazin-2-amine] | –
28 | 5 | 46 | Cc1nc(-c2cccnc2Nc2cnc(Cl)c(NS(C)(=O)=O)c2)c2nc[nH]c2n1 [Example 338, N-(2-Chloro-5-(3-(2-Methyl-9H-Purin-6-yl)Pyridin-2-Ylamino)Pyridin-3-yl)Methanesulfonamide] | –
29 | 7 | 8 | COc1ncc(Nc2ncc(CN3CCN4C(CCS4(=O)=O)C3)cc2-c2nc(C)nc(N)n2)cc1F (stereo not drawn) [Example 383, 4-(5-((1,1-Dioxidohexahydro-5H-Isothiazolo[2,3-A]Pyrazin-5-yl)Methyl)-2-((5-Fluoro-6-Methoxy-3-Pyridinyl)Amino)-3-Pyridinyl)-6-Methyl-1,3,5-Triazin-2-Amine] | –
30 | 11 | 46 | COc1ccc(Nc2ncc(-c3cn[nH]c3)cc2-c2nc(C)nc(N)n2)cn1 [Example 250, 4-(2-(6-Methoxypyridin-3-Ylamino)-5-(1H-Pyrazol-4-yl)Pyridin-3-yl)-6-Methyl-1,3,5-Triazin-2-Amine] | –
31 | 19 | – | COc1ncc(Nc2ncccc2-c2nc(C)nc(N)n2)cc1F [Example 246, 4-(2-(5-Fluoro-6-Methoxypyridin-3-Ylamino)Pyridin-3-yl)-6-Methyl-1,3,5-Triazin-2-Amine] | –
32 | 18 | – | COc1ccc(Nc2ncncc2-c2nc(C)nc(N)n2)cn1 [Example 117, 4-(4-(6-methoxypyridin-3-ylamino)pyrimidin-5-yl)-6-methyl-1,3,5-triazin-2-amine] | –
